Results published in patent US20030004172A1, “Fused pyrimidinone matrix metalloproteinase inhibitors” (priority 2001, published 2003).

Molecular target: MMP-13CD (catalytic domain of collagenase-3) (Homo sapiens, UniProt P45452)
Assay: Thiopeptolide substrate hydrolysis inhibition assay, MMP-13CD
Type: biochemical
Conditions: Table I; thiopeptolide substrate, HEPES pH 7.0, 22° C.; read-out: MMP-13CD IC50
Excerpt: Thiopeptolide substrates show virtually no decomposition or hydrolysis at or below neutral pH in the absence of a matrix metalloproteinase enzyme.

| Structure (SMILES) | IC50 [µM] |
| --- | --- |
| COc1cc(CNC(=O)c2cc3c(=O)n(Cc4ccccc4)c(=O)n(C)c3s2)cc(OC)c1 [Example 333, 3-Benzyl-1-methyl-2,4-dioxo-1,2,3,4-tetrahydro-thieno[2,3-d]pyrimidine-6-carboxylic acid 3,5-dimethoxy-benzylamide] | > 100 |
| COc1cccc(CNC(=O)c2cc3c(=O)n(Cc4ccccc4)c(=O)n(C)c3s2)c1OC [Example 334, 3-Benzyl-1-methyl-2,4-dioxo-1,2,3,4-tetrahydro-thieno[2,3-d]pyrimidine-6-carboxylic acid 2,3-dimethoxy-benzylamide] | > 100 |
| Cc1ccccc1CNC(=O)c1cc2c(=O)n(Cc3ccccc3)c(=O)n(C)c2s1 [Example 337, 3-Benzyl-1-methyl-2,4-dioxo-1,2,3,4-tetrahydro-thieno[2,3-d]pyrimidine-6-carboxylic acid 2-methyl-benzylamide] | > 100 |
| Cn1c(=O)n(Cc2ccccc2)c(=O)c2cc(C(=O)NCCCCc3ccccc3)sc21 [Example 338, 3-Benzyl-1-methyl-2,4-dioxo-1,2,3,4-tetrahydro-thieno[2,3-d]pyrimidine-6-carboxylic acid (4-phenyl-butyl)-amide] | > 100 |
| COc1cccc(CCNC(=O)c2cc3c(=O)n(Cc4ccccc4)c(=O)n(C)c3s2)c1 [Example 342, 3-Benzyl-1-methyl-2,4-dioxo-1,2,3,4-tetrahydro-thieno[2,3-d]pyrimidine-6-carboxylic acid[2-(3-methoxy-phenyl)-ethyl]-amide] | > 100 |
| COc1ccccc1CCNC(=O)c1cc2c(=O)n(Cc3ccccc3)c(=O)n(C)c2s1 [Example 348, 3-Benzyl-1-methyl-2,4-dioxo-1,2,3,4-tetrahydro-thieno[2,3-d]pyrimidine-6-carboxylic acid[2-(2-methoxy-phenyl)-ethyl]-amide] | 30 |
| Cn1c(=O)n(Cc2ccccc2)c(=O)c2cc(C(=O)NCCc3cccc(C(F)(F)F)c3)sc21 [Example 349, 3-Benzyl-1-methyl-2,4-dioxo-1,2,3,4-tetrahydro-thieno[2,3-d]pyrimidine-6-carboxylic acid[2-(3-trifluoromethyl-phenyl)-ethyl]-amide] | > 100 |
| Cn1c(=O)n(Cc2ccccc2)c(=O)c2cc(C(=O)NCc3cc(Cl)cc(Cl)c3)sc21 [Example 352, 3-Benzyl-1-methyl-2,4-dioxo-1,2,3,4-tetrahydro-thieno[2,3-d]pyrimidine-6-carboxylic acid 3 ,5-dichloro-benzylamide] | > 100 |
| Cn1c(=O)n(Cc2ccccc2)c(=O)c2cc(C(=O)NC3CCc4ccccc43)sc21 (stereo not drawn) [Example 353, 3-Benzyl-1-methyl-2,4-dioxo-1,2,3,4-tetrahydro-thieno[2,3-d]pyrimidine-6-carboxylic acid indan-1-ylamide] | > 100 |
| Cn1c(=O)n(Cc2ccccc2)c(=O)c2cc(C(=O)NCc3ccco3)sc21 [Example 354, 3-Benzyl-1-methyl-2,4-dioxo-1,2,3,4-tetrahydro-thieno[2,3-d]pyrimidine-6-carboxylic acid (furan-2-ylmethyl)-amide] | 30 |
| COc1ccc(CCNC(=O)c2cc3c(=O)n(Cc4ccccc4)c(=O)n(C)c3s2)cc1 [Example 355, 3-Benzyl-1-methyl-2,4-dioxo-1,2,3,4-tetrahydro-thieno[2,3-d]pyrimidine-6-carboxylic acid[2-(4-methoxy-phenyl)-ethyl]-amide] | > 100 |
| CC(NC(=O)c1cc2c(=O)n(Cc3ccccc3)c(=O)n(C)c2s1)c1ccccc1 (stereo not drawn) [Example 358, 3-Benzyl-1-methyl-2,4-dioxo-1,2,3,4-tetrahydro-thieno[2,3-d]pyrimidine-6-carboxylic acid (1-phenyl-ethyl)-amide] | > 100 |
| Cc1ccc(CCNC(=O)c2cc3c(=O)n(Cc4ccccc4)c(=O)n(C)c3s2)c(C)c1 [Example 362, 3-Benzyl-1-methyl-2,4-dioxo-1,2,3,4-tetrahydro-thieno[2,3-d]pyrimidine-6-carboxylic acid[2-(2,4-dimethyl-phenyl)-ethyl]-amide] | > 100 |
| Cn1c(=O)n(Cc2ccccc2)c(=O)c2cc(C(=O)NCCc3ccc(Cl)cc3Cl)sc21 [Example 363, 3-Benzyl-1-methyl-2,4-dioxo-1,2,3,4-tetrahydro-thieno[2,3-d]pyrimidine-6-carboxylic acid[2-(2,4-dichloro-phenyl)-ethyl]-amide] | 30 |

More lines, now with the values ahead:

| IC50 [µM] | Structure (SMILES) |
| --- | --- |
| 1 | Cn1c(=O)n(Cc2ccccc2)c(=O)c2cc(C(=O)NCc3cccc(Cl)c3)sc21 [Example 332, 3-Benzyl-1-methyl-2,4-dioxo-1,2,3,4-tetrahydro-thieno[2,3-d]pyrimidine-6-carboxylic acid 3-chloro-benzylamide] |
| 0.25 | Cn1c(=O)n(Cc2ccccc2)c(=O)c2cc(C(=O)NCc3cccc(C(F)(F)F)c3)sc21 [Example 335, 3-Benzyl-1-methyl-2,4-dioxo-1,2,3,4-tetrahydro-thieno[2,3-d]pyrimidine-6-carboxylic acid 3-trifluoromethyl-benzylamide] |
| 30 | COc1ccccc1CNC(=O)c1cc2c(=O)n(Cc3ccccc3)c(=O)n(C)c2s1 [Example 336, 3-Benzyl-1-methyl-2,4-dioxo-1,2,3,4-tetrahydro-thieno[2,3-d]pyrimidine-6-carboxylic acid 2-methoxy-benzylamide] |
| 0.38 | Cn1c(=O)n(Cc2ccccc2)c(=O)c2cc(C(=O)NCc3cccnc3)sc21 [Example 339, 3-Benzyl-1-methyl-2,4-dioxo-1,2,3,4-tetrahydro-thieno[2,3-d]pyrimidine-6-carboxylic acid (pyridin-3-ylmethyl)-amide] |
| 0.12 | COc1ccc(CNC(=O)c2cc3c(=O)n(Cc4ccccc4)c(=O)n(C)c3s2)cc1 [Example 340, 3-Benzyl-1-methyl-2,4-dioxo-1,2,3,4-tetrahydro-thieno[2,3-d]pyrimidine-6-carboxylic acid 4-methoxy-benzylamide] |
| 0.044 | COc1cccc(CNC(=O)c2cc3c(=O)n(Cc4ccccc4)c(=O)n(C)c3s2)c1 [Example 343, 3-Benzyl-1-methyl-2,4-dioxo-1,2,3,4-tetrahydro-thieno[2,3-d]pyrimidine-6-carboxylic acid 3-methoxy-benzylamide] |
| 3.6 | Cn1c(=O)n(Cc2ccccc2)c(=O)c2cc(C(=O)NCc3cccs3)sc21 [Example 344, 3-Benzyl-1-methyl-2,4-dioxo-1,2,3,4-tetrahydro-thieno[2,3-d]pyrimidine-6-carboxylic acid (thiophen-2-ylmethyl)-amide] |
| 30 | Cn1c(=O)n(Cc2ccccc2)c(=O)c2cc(C(=O)NCc3ccccc3Cl)sc21 [Example 345, 3-Benzyl-1-1-methyl-2,4-dioxo-1,2,3,4-tetrahydro-thieno[2,3-d]pyrimidine-6-carboxylic acid 2-chloro-benzylamide] |
| 9.9 | Cc1ccc(CNC(=O)c2cc3c(=O)n(Cc4ccccc4)c(=O)n(C)c3s2)o1 [Example 346, 3-Benzyl-1-methyl-2,4-dioxo-1,2,3,4-tetrahydro-thieno[2,3-d]pyrimidine-6-carboxylic acid (5-methyl-furan-2-ylmethyl)-amide] |
| 16 | Cn1c(=O)n(Cc2ccccc2)c(=O)c2cc(C(=O)NCC(c3ccccc3)c3ccccc3)sc21 [Example 347, 3-Benzyl-1-methyl-2,4-dioxo-1,2,3,4-tetrahydro-thieno[2,3-d]pyrimidine-6-carboxylic acid (2,2-diphenyl-ethyl)-amide] |
| 0.93 | Cn1c(=O)n(Cc2ccccc2)c(=O)c2cc(C(=O)NCc3ccc(Br)cc3)sc21 [Example 350, 3-Benzyl-1-methyl-2,4-dioxo-1,2,3,4-tetrahydro-thieno[2,3-d]pyrimidine-6-carboxylic acid 4-bromo-benzylamide] |
| 2 | Cn1c(=O)n(Cc2ccccc2)c(=O)c2cc(C(=O)NCCc3c[nH]c4ccccc34)sc21 [Example 351, 3-Benzyl-1-methyl-2,4-dioxo-1,2,3,4-tetrahydro-thieno[2,3-d]pyrimidine-6-carboxylic acid[2-(1H-indol-3-yl)-ethyl]-amide] |
| 10 | COc1ccc(CNC(=O)c2cc3c(=O)n(Cc4ccccc4)c(=O)n(C)c3s2)c(OC)c1 [Example 356, 3-Benzyl-1-methyl-2,4-dioxo-1,2,3,4-tetrahydro-thieno[2,3-d]pyrimidine-6-carboxylic acid 2,4-dimethoxy-benzylamide] |
| 0.32 | Cn1c(=O)n(Cc2ccccc2)c(=O)c2cc(C(=O)NCc3ccc(Cl)cc3)sc21 [Example 357, 3-Benzyl-1-methyl-2,4-dioxo-1,2,3,4-tetrahydro-thieno[2,3-d]pyrimidine-6-carboxylic acid 4-chloro-benzylamide] |
| 1 | Cn1c(=O)n(Cc2ccccc2)c(=O)c2cc(C(=O)NCc3ccc(Cl)c(Cl)c3)sc21 [Example 359, 3-Benzyl-1-methyl-2,4-dioxo-1,2,3,4-tetrahydro-thieno[2,3-d]pyrimidine-6-carboxylic acid 3,4-dichloro-benzylamide] |
| 0.27 | Cn1c(=O)n(Cc2ccccc2)c(=O)c2cc(C(=O)NCc3ccc(F)c(C(F)(F)F)c3)sc21 [Example 360, 3-Benzyl-1-methyl-2,4-dioxo-1,2,3,4-tetrahydro-thieno[2,3-d]pyrimidine-6-carboxylic acid 4-fluoro-3-trifluoromethyl-benzylamide] |
| 7.7 | Cn1c(=O)n(Cc2ccccc2)c(=O)c2cc(C(=O)NCCc3ccccn3)sc21 [Example 361, 3-Benzyl-1-methyl-2,4-dioxo-1,2,3,4-tetrahydro-thieno[2,3-d]pyrimidine-6-carboxylic acid (2-pyridin-2-yl-ethyl)-amide] |
| 1.55 | COc1ccc(CNC(=O)c2cc3c(=O)n(CC#N)c(=O)n(C)c3s2)cc1 [Example 365, 3-Cyanomethyl-1-methyl-2,4-dioxo-1,2,3,4-tetrahydro-thieno[2,3-d]pyrimidine-6-carboxylic acid 4-methoxy-benzylamide] |
| 0.00825 | COc1cccc(CNC(=O)c2cc3c(=O)n(Cc4ccc(S(=O)(=O)NC5CC5)cc4)c(=O)n(C)c3s2)c1 [Example 367, 3-(4-Cyclopropylsulfamoyl-benzyl)-1-methyl-2,4-dioxo-1,2,3,4-tetrahydro-thieno[2,3-d]pyrimidine-6-carboxylic acid 3-methoxy-benzylamide] |
